Source: patent US20220133714A1, “EXTRACELLULAR MATRIX MODULATING AGENT” (KOWA COMPANY, LTD., priority 2019, published 2022)

What was measured:
[1] = system: corneal endothelial cells of FECD patients; assay: Real-time PCR expression of FECD-associated matrix genes in FECD patient endothelial-Descemet membrane specimens; assay type: cell-based, human; conditions: 30 μM, 24 hours, vs untreated controls
Method: (§1) FIG. 4 illustrates Relative expression of FECD-associated matrix genes in corneal endothelial cells of FECD patients (n=20) without and with incubation in 30 μM K-115 for 24 h. Gene expression was analyzed by quantitative real-time PCR and normalized to GAPDH (*p<0.01, **p<0.001). Endothelial-Descemet membrane (EDM)-complexes from normal donor corneas and from FECD patients during DMEK surgery were prepared. EDM scrolls were dissected into two halves and incubated for 24-72 hours in CorneaMax storage medium (Eurobio) with or without K-115 (Selleck Chemicals). Gene expression analysis was performed using specific real-time PCR arrays for FECD-associated candidate genes as well as RT2 Profiler PCR Arrays (Quiagen). Array results were again validated using gene-specific real-time PCR assays. Protein expression analysis was performed by Western blotting. Then, gene expression levels in FECD specimens were analyzed, which were incubated in 30 μM K-115 for 24 hours. […] In order to identify additional matrix genes that may be transcriptionally regulated by K-115, gene expression profiling using a Human Extracellular Matrix and Adhesion Molecule PCR array were performed. With this approach, downregulation of fibronectin and collagen types I and III and detected additional downregulation of vitronectin and collagen types V and XIV in corneal endothelial cells from FECD patients (data not shown) were confirmed.

[2] = system: corneal endothelial cells from FECD patients; assay: Human Extracellular Matrix and Adhesion Molecule PCR array gene expression profiling; assay type: cell-based; conditions: data not shown
Method: as §1, with “Endothelial-Descemet” for “FIG. 4 illustrates Relative expression of FECD-associated matrix genes in corneal endothelial cells of FECD patients (n=20) without and with incubation in 30 μM K-115 for 24 h. Gene expression was analyzed by quantitative real-time PCR and normalized to GAPDH (*p<0.01, **p<0.001). Endothelial-Descemet”

[3] = system: corneal endothelial cells of normal donors; assay: Real-time PCR expression of FECD-associated matrix genes in normal donor endothelial-Descemet membrane specimens; assay type: cell-based, human; conditions: normal EDM specimens, 24 h
Method: FIG. 3 illustrates Relative expression of FECD-associated matrix genes in corneal endothelial cells of normal donors (n=6) without and with incubation in 10-100 μM K-115 for 24 h. Gene expression was analyzed by quantitative real-time PCR and normalized to GAPDH (*p<0.01).
(§2) Endothelial-Descemet membrane (EDM)-complexes from normal donor corneas and from FECD patients during DMEK surgery were prepared. EDM scrolls were dissected into two halves and incubated for 24-72 hours in CorneaMax storage medium (Eurobio) with or without K-115 (Selleck Chemicals). Gene expression analysis was performed using specific real-time PCR arrays for FECD-associated candidate genes as well as RT2 Profiler PCR Arrays (Quiagen). Array results were again validated using gene-specific real-time PCR assays. Protein expression analysis was performed by Western blotting.

[4] = system: corneal endothelial cells of FECD patients; assay: Western blot protein expression in FECD specimens; assay type: cell-based, human; conditions: 30 μM, 72 hours of incubation
Method: FIG. 5 illustrates Western Blot analysis of fibronectin in corneal endothelial cells of FECD patients (n=4); equal loading of samples was verified by β-actin.
as §2
Then, gene expression levels in FECD specimens were analyzed, which were incubated in 30 μM K-115 for 24 hours. […] In order to identify additional matrix genes that may be transcriptionally regulated by K-115, gene expression profiling using a Human Extracellular Matrix and Adhesion Molecule PCR array were performed. With this approach, downregulation of fibronectin and collagen types I and III and detected additional downregulation of vitronectin and collagen types V and XIV in corneal endothelial cells from FECD patients (data not shown) were confirmed.

[5] = system: corneal endothelial cells; conditions: cited from earlier work; for apoptosis and endothelial-mesenchymal transition (EMT) of corneal endothelial cells / cell adhesion, migration, proliferation and wound healing: in vitro and in vivo animal models
human fibroblasts = conditions: cited from earlier work

## C[C@H]1CNCCCN1S(=O)(=O)c1cccc2cncc(F)c12 [K-115, (S)-(−)-1-(4-fluoro-5-isoquinolinesulfonyl)-2-methyl-1,4-homopiperazine]
[1]
  TGFBI gene expression: upregulated
  agrin gene expression: significant reduction
  collagen type I gene expression: significant reduction
  collagen type III gene expression: significant reduction
  collagen type XVI gene expression: upregulated
  fibronectin gene expression: significant reduction
  integrin a4 (ITGA4) gene expression: upregulated
  α-SMA gene expression: significant reduction
[2]
  collagen type I gene expression (PCR array): downregulation
  collagen type III gene expression (PCR array): downregulation
  collagen type V gene expression (PCR array): downregulation
  collagen type XIV gene expression (PCR array): downregulation
  fibronectin gene expression (PCR array): downregulation
  vitronectin gene expression (PCR array): downregulation
[3]; 10-100 μM, normalized to GAPDH
  agrin gene expression: significantly downregulated
  collagen type I gene expression: significantly downregulated
  collagen type III gene expression: significantly downregulated
  fibronectin gene expression: significantly downregulated
  α-smooth muscle actin (α-SMA) gene expression: significantly downregulated
  β-actin gene expression: significantly downregulated
[3]; tested 10-100 μM
  most effective concentration for downregulation of matrix genes: 30 µM
[4]
  collagen type III protein level: significantly downregulated
[4]; Western blot
  fibronectin protein level: significantly downregulated
[5]
  EMT markers: downregulation
  endothelial cell proliferation and wound healing: stimulating
  functional endothelial markers: upregulation

## O=S(=O)(c1cccc2cnccc12)N1CCCNCC1 [Fasudil]
Human fibroblasts
  expression of α-SMA, MLCP, LIMK1, p-cofilin, collagen I, and collagen III protein: attenuated

## Cc1cncc2cccc(S(=O)(=O)N3CCCNC[C@@H]3C)c12 [H-1152]
[5]
  apoptosis and endothelial-mesenchymal transition (EMT) of corneal endothelial cells: suppressed
  cell adhesion, migration, proliferation and wound healing: stimulated

## O=C(NCc1ccccc1)c1csc(Nc2ccncn2)n1 [Thiazovivin]
[5]
  apoptosis and endothelial-mesenchymal transition (EMT) of corneal endothelial cells: suppressed
  cell adhesion, migration, proliferation and wound healing: stimulated

## C[C@@H](N)[C@H]1CC[C@H](C(=O)Nc2ccncc2)CC1 [Y-27632]
[5]
  apoptosis and endothelial-mesenchymal transition (EMT) of corneal endothelial cells: suppressed
  cell adhesion, migration, proliferation and wound healing: stimulated
